The target of test [1] is T1, BiP NBD (Homo sapiens, UniProt P11021). The experiment in a line: Equilibrium 2D methyl-TROSY NMR fingerprint spectra with ligands (ATP analogs, calcium). More on the design: His6 (N, cleaved yes); made in house; host or cells: E. coli BL21-(DE3)-Lemo, pET28a vector. The settings on record: 2D methyl-TROSY compared with in-cyclo states. It is filed as binding. Here is the method:
First, we probed calcium binding to ADP-bound NBD by NMR equilibrium experiments. […] (Supplementary Fig. 15d). […] (Supplementary Fig. 16).
AMPPNP (adenylyl imidodiphosphate; Jena-bioscience), AMPPCP (adenylyl methylenediphosphate; Jena-bioscience) and ATP-γ-S (adenosine 5’-(gamma-thiotriphosphate; Jena-bioscience) were dissolved in the HKM reaction buffer (25 mM HEPES, pH 7.5, 150 mM KCl and 10 mM MgCl2) at a concentration of 50 mM directly before to be mixed with the BiP NBD sample. Samples were prepared fresh before each use to minimize the known instability of these analogs that undergo slow hydrolysis in solution.
Supplementary Figure 7. Analysis of the BiP NBD ATP-bound state. a, Combined methyl chemical shift differences between the APD·Pi-bound and the ATP-bound state of BiP NBD in-cyclo. The magnitude of 1 and 1.5 SDs are indicated by an orange and a red line, respectively. b, Overlay of 9 crystal structures of BiP NBD in presence of different nucleotides (colored sticks). c, Backbone root means square deviation (RMSD - Å) between the structures shown in (b) and the NBD apo state (PDB 3LDN). d, 2D [13C,1H]-TROSY spectrum of methyl-labeled BiP NBD in equilibrium with the ATP analogs AMPPNP (green), AMPPCP (orange) or ATP-γ-S (yellow), overlayed with the spectrum in-cyclo (pink).
State- and sequence-specific resonance assignments are indicated for the ADP-bound (light blue), ADP·Pi-bound (dark blue) and the ATP-bound (red) states in-cyclo.
(§1) (1 picture or pasted object on this page, not shown here)
Supplementary Figure 15. Mapping of calcium binding to BiP NBD. a, Selected details from published structures of BiP. From left to right: yeast BiP(NBD)-Mg2+-ADP (PDB 3QFU), human BiP(NBD)-Mg2+- ADP·Pi (PDB 5EVZ), human BiP(NBD)-Ca2+-ADP (PDB 6ZYH). b, Selected sections of 2D [13C,1H]-methyl-TROSY spectra of residue val50cg1 or Ile52cd1 for the equilibrium experiments of NBD apo (grey), NBD with 5 mM Pi (green), NBD with 1 mM ADP (light blue), NBD with 1 mM ADP·Pi (dark blue), NBD with 1 mM ADP-Ca2+ (dark-pink).and NBD with 3.3 mM calcium ([Mg2+]/[Ca2+]=3) (light-pink). c, Combined methyl chemical shift differences between the BiP NBD APD and the ADP-Ca2+-bound state. The magnitude of 1 and 1.5 SDs are indicated by a light blue and a dark blue line. d, Structure of NBD in […]
the ADP-Ca-bound state (PDB 6ZYH).

A further test concerns the target BiP. The settings on record: NBD·MABA-ATP ⇌ NBD + MABA-ATP; cited from earlier work.
The target in test [2] is T1, BiP NBD. The experiment in a line: NMR experiment with MABA-ATP (no E1, no E2) and kinetic fit of the MABA-ATP/MABA-ADP functional cycle. It is filed as biochemical. More on the design: His6 (N, cleaved yes); made in house; host or cells: E. coli BL21-(DE3)-Lemo, pET28a vector. The note with it: for species: Supplementary Fig 13b. Here is the method:
[…] After the equilibration time 2D [^13C,^1H]-HMQC spectra were recorded in interleaved mode with 1D ^1H NMR spectra. […] The same setup was used for the alternative experiments by including or excluding E1 and/or E2. When E1 was not included, the ratio of the ATP/ADP NMR signals was used to monitor their relative concentrations.
as §1

For another test, the system named is Hsp70. The arrangement: method as in PMID 8226982. The note with it: optimal range of concentration between 100 and 150 mM; cited from earlier work.
The mark [3] stands for this setting: MABA-ATP instead of ATP, reactions 1MABA, 2MABA, 3.

Entries after “also recorded” stand apart in the source; their conditions may differ.

T1 sequence (P11021 19-406): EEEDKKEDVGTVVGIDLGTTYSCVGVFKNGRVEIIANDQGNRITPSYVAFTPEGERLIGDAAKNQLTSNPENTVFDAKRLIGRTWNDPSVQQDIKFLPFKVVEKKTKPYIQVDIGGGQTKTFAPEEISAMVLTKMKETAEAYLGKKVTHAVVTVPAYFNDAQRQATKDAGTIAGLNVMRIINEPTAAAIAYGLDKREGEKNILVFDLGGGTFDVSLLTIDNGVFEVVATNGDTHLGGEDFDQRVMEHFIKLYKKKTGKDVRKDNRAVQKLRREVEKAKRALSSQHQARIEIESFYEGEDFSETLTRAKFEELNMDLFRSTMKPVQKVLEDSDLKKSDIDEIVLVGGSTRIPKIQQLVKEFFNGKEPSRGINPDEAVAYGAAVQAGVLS

As for `Nc1ncnc2c1ncn2[C@@H]1O[C@H](COP(=O)(O)OP(=O)(O)CP(=O)(O)O)[C@@H](O)[C@H]1O` [AMPPCP, adenylyl methylenediphosphate], the “NMR fingerprint of BiP NBD with the ligand” value at BiP NBD [1] was “resemble the ADP·Pi-bound state rather than the ATP-bound state”.
The same measure, in the same setting: the entry for `Nc1ncnc2c1ncn2[C@@H]1O[C@H](COP(=O)(O)OP(=O)(O)NP(=O)(O)O)[C@@H](O)[C@H]1O` [AMPPNP, adenylyl imidodiphosphate] is “resemble the ADP·Pi-bound state rather than the ATP-bound state”.
The same measure, in the same setting: with `Nc1ncnc2c1ncn2[C@@H]1O[C@H](CO[P@](=O)(O)O[P@](=O)(O)O[P@@](=O)(O)S)[C@@H](O)[C@H]1O` [ATP-γ-S, adenosine 5’-(gamma-thiotriphosphate)] the entry was “resemble the ADP·Pi-bound state rather than the ATP-bound state; also recorded: showed a peak splitting, indicating the formation of a heterogenous mix of conformations”.
In general, Kd refers to the free concentration of one partner at which half of the binding sites on the other are occupied at equilibrium, for simple one-to-one binding. One may read the kon as the rate constant with which the complex forms. What is called koff is the rate constant with which the complex falls apart. Read a low koff as slow dissociation. Broadly, the kcat is the number of substrate molecules converted per active site and unit of time at saturation. Take `CNc1ccccc1C(=O)NCCCCNc1nc2c(N)ncnc2n1[C@@H]1O[C@H](COP(=O)(O)OP(=O)(O)OP(=O)(O)O)[C@@H](O)[C@H]1O` [MABA-ATP, 8-[(4-Amino)butyl]-amino-ATP-MAN]: at BiP, the Kd is 1 µM, the “koff1 (MABA-ATP)” value is 0.031 s⁻¹ and the kon is 32000 M⁻¹ s⁻¹. At BiP NBD [2] (setting [3]), this compound returned a koff of 0.035 ± 0.008 s⁻¹ and a kon of 37000 ± 6000 M⁻¹ s⁻¹. For the same compound, at BiP NBD [2] (MABA-ATP instead of ATP, reactions 1MABA, 2MABA, 3: release to apo NBD, T = 37°C), the Kd came to 0.95 ± 0.1 µM. In addition, at BiP NBD [2] (NBD·MABA-ATP → NBD·MABA-ADP·Pi), the kcat was determined as 0.036 s⁻¹.
`CNc1ccccc1C(=O)NCCCCNc1nc2c(N)ncnc2n1[C@@H]1O[C@H](COP(=O)(O)OP(=O)(O)O)[C@@H](O)[C@H]1O` [MABAADP]: the species at BiP NBD [2] (time 4 min) is 350 µM; on BiP NBD [2] (time 10 min), 508 µM; on BiP NBD [2] (time 16 min) it was 626 µM; on BiP NBD [2] (time 22 min), 712 µM; on BiP NBD [2] (time 28 min), 800 µM; on BiP NBD [2] (time 34 min), 840 µM. Besides, the species was 889 µM at BiP NBD [2] (time 40 min); 907 µM at BiP NBD [2] (time 46 min); 929 µM at BiP NBD [2] (time 52 min); 924 µM at BiP NBD [2] (time 58 min); 932 µM on BiP NBD [2] (time 64 min).
In the case of `CNc1ccccc1C(=O)NCCCCNc1nc2c(N)ncnc2n1[C@@H]1O[C@H](COP(=O)(O)OP(=O)(O)OP(=O)(O)O)[C@@H](O)[C@H]1O` [MABAATP], the species on BiP NBD [2] (time 4 min) was determined as 649 µM; on BiP NBD [2] (time 10 min), 492.3 µM; at BiP NBD [2] (time 16 min) it was 374.2 µM; on BiP NBD [2] (time 22 min), 287.7 µM; at BiP NBD [2] (time 28 min), 199.6 µM; at BiP NBD [2] (time 34 min), 160.1 µM. The species on BiP NBD [2] (time 40 min) is 111.4 µM; on BiP NBD [2] (time 46 min), 92.6 µM; on BiP NBD [2] (time 52 min) it was 70.6 µM; at BiP NBD [2] (time 58 min), 65.7 µM; at BiP NBD [2] (time 64 min), 67.7 µM.
Take `[K+]` [potassium]: the “increase of the Hsp70 ATP hydrolysis activity” value in the test on Hsp70 is given as 5 fold.
